Where two headings read alike, the source gives them in different places. One block for each compound: values may come before it.
Tests used:
[1] = tested on: peritoneal mast cells of rat; test: Histamine release from peritoneal mast cells induced by Compound 48/80 (non-allergic release); format: cell-based, Sprague-Dawley strain male rat; details: for inhibition at 10 µM: Rattus norvegicus, Mast cell, 10 min, read-out: Inhibitory ratio (%) histamine release
Method: (§1) To a Sprague-Dawley strain male rat (10 weeks or older) was intraperitoneally administered, under ether anesthesia, a diluted rat anti-DNP-As IgE serum at 2 ml/kg. After 16 hours, cells were recovered by washing intraperitoneally with a Tyrode solution containing 0.5% heparin (Ca⁺⁺, Mg⁺⁺, free). Mast cells (5 x 10⁴) separated by overlying in the 30% Ficoll/Tyrode solution and centrifugation were reliberated into the Tyrode solution (Ca⁺⁺, Mg⁺⁺) and incubated with the addition of the drug solution shown in Table 3-1, for 10 minutes, and then DNP-As and phosphatidylserine were added to final concentrations of 20 µg/ml and 25 µg/ml, respectively, followed by incubation for 10 minutes. The reaction was stopped by ice-cooling, and the histamine release in the supernatant was determined by fluorophotometry. Regarding the non-allergy release, 5 x 10⁴ of mast cells were investigated by incubation with 0.5 µg/ml of Compound 48/80 for 10 minutes, after the addition of the drug solution shown in Table 3-2.

[2] = tested on: Rat homologous PCA reaction; test: Rat homologous PCA reaction; format: in vivo, Sprague-Dawley strain male rat; details: p.o., 1 hour before antigen
Method: The back of a Sprague-Dawley strain male rat (6 - 8 w) was depilated, and at one site on both sides thereof, 0.1 ml of a rat anti-ovalbumin IgE serum diluted with physiological saline was intradermally injected under ether anesthesia. After 48 hours, 25 mg/kg of ovalbumin, 25 mg/kg of Evans Blue were intravenously administered to induce the PCA reaction, and after 30 minutes, the skin was peeled off, dipped in a mixture of 0.3% Na₂SO₄·10H₂O/Acetate (3:7), and the dye amount infiltrated was quantitated by absorbance at 620 nm. The drug listed in Table 4 was suspended in 5% gum arabic solution and orally administered 1 hour before the antigen administration.

[3] = tested on: anti-TNP IgE antibody production; test: IgE antibody production suppressive effect: anti-TNP IgE production by cultured spleen cells of TNP-KLH-immunized mouse; format: cell-based, BALB/C mouse
Method: An 8 weeks old BALB/C mouse (♀) was immunized by an intraperitoneal injection of 10 µg of TNP-KLH (trinitrophenyl-key hole limpet hemocyanine) and 2 mg of aluminum hydroxide gel, and after 3 weeks, 1 µg of TNP-KLH and 2 mg of aluminum hydroxide gel were boosted, and 4 weeks later, the spleen was enucleated.
The spleen cells (6 x 10⁶) were cultured together with 10 ng/ml of TNP-KLH, in the presence or non-presence of the compound of the present invention (10⁻⁵ to 10⁻⁷ M), in 1 ml of RPMI-1640 medium (containing 10% fetal bovine serum) for 2 days, followed by washing to remove the antigen and the drug, and the washed cells were resuspended in a fresh medium containing no antigen and further cultured for 5 days. All cultivations were performed under 5% CO₂ at 37°C. After completion of the culturing, the supernatant was recovered, and the concentration of anti-TNP IgE or anti-TNP IgG antibody was determined by an antigen and isotype specific immunoassay. […]
The values in the brackets ( ) indicate the values of the spontaneous IgE production amount observed when TNP-KLH was not added, and represent the IgE production dependency on the antigen.
The same experimental methods were used for the compounds shown below, and IgE antibody production suppressive effects were evaluated. […] (Exemplary compound VI - (1)): methyl (6,7-dimethoxy-2-naphthylthio)acetate (Exemplary compound V - (4)): N-(2-methoxycarbonylphenyl)-(6,7-dihydroxy-2-naphthylthio)acetamide (Exemplary compound V - (2)): N-tetrazolyl(6,7-dihydroxy-2-naphthylthio)acetamide Table 2

Lipoxygenase = biological target: T1, Lipoxygenase (Homo sapiens, UniProt P09917); test: Lipoxygenase inhibitory activity evaluation: LTB4 and 5-HETE production in A23187-stimulated whole blood; format: cell-based, healthy man; details: 10⁻⁵ M, A23187 25 µM; for Amount of LTB₄ produced: no addition 125; for Amount of 5-HETE produced: no addition 130
T1 construct: heparin-treated vein blood of a healthy person; from tissue; host or cells: human heparinised venous whole blood (leukocytes)
T1 sequence (P09917 1-674): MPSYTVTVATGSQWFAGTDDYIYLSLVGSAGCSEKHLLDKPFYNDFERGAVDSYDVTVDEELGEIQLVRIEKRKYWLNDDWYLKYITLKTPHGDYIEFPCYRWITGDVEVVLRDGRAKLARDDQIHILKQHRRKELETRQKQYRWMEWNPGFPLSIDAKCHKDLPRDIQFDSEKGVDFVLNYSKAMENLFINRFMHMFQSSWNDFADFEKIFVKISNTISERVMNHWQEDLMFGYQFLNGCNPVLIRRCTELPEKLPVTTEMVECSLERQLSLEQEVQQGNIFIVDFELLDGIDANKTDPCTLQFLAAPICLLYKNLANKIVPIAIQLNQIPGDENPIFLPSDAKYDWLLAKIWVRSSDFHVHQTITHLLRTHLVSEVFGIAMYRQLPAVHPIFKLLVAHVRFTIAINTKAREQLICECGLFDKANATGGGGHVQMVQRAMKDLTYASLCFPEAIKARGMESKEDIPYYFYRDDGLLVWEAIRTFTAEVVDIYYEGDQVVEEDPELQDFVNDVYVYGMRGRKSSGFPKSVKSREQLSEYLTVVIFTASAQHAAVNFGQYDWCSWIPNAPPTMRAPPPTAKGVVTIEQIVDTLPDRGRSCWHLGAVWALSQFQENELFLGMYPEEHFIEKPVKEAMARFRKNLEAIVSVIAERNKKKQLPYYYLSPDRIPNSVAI
Method: To 1 ml of heparin-treated vein blood of a healthy person without an administration of drugs was added 1 µl of a DMSO solution of the drug test sample listed in Table 5 (final 10⁻⁵ M), and after treatment at 37°C for 5 minutes, 5 µl of a DMSO solution of A23187 was added (final 25 µM) and the treatment carried out at 37°C for 15 minutes, followed by ice-cooling. After the addition of 10 µl of a DMSO solution of 100 ng of 15-HETE as the internal standard substance for quantitation, 0.8 ml of acetonitrile was added, and the precipitates formed were removed by centrifugation. Then, LTB₄ and 5-HETE in the supernatant were subjected to HPLC separation and quantitation (ref. F.J. Sweeney, et al., Prostaglandins Leukotrienes & Med., 28, 73 (1987)).

[4] = tested on: peritoneal mast cells of rat; test: Histamine release from IgE-sensitized peritoneal mast cells, DNP-As antigen (allergic release); format: cell-based, Sprague-Dawley strain male rat
Method: as §1, with “fluorophotometry.” for “fluorophotometry. Regarding the non-allergy release, 5 x 10⁴ of mast cells were investigated by incubation with 0.5 µg/ml of Compound 48/80 for 10 minutes, after the addition of the drug solution shown in Table 3-2.”

[5] = Experiment 1, 10⁻⁵ M, Compound 48/80 0.5 µg/ml
[6] = Experiment 2, 10⁻⁵ M, Compound 48/80 0.5 µg/ml

Compound: COc1ccc(/C=C/C(=O)Nc2ccccc2C(=O)O)cc1OC [Tranilast, reference compound]
inhibition at 10 µM [1, 5]: 24.4% | Suppressive ratio (%) Experiment 1 ([2]; 200 mg/kg): 24.2% | Suppressive ratio (%) Experiment 2 ([2]; 200 mg/kg): 26.9%

Compound: COC(=O)CSc1ccc2cc(OC)c(OC)cc2c1 [Exemplary compound VI-(1), Methyl (6,7-dimethoxy-2-naphthylthio)acetate]
inhibition at 10 µM [1, 6]: 3.7% | Suppressive ratio (IgE antibody production) ([3]; 10⁻⁶ M): 69%

Compound: COC(=O)c1ccccc1NC(=O)CSc1ccc2cc(O)c(O)cc2c1 [Exemplary compound V-(4), N-(2-methoxycarbonylphenyl)(6,7-dihydroxy-2-naphthylthio)acetamide]
inhibition at 10 µM [1, 5]: -0.8% | Suppressive ratio (IgE antibody production) ([3]; 10⁻⁶ M): 7% | Suppressive ratio (IgE antibody production) ([3]; 10⁻⁷ M): 26% | Suppressive ratio (%) Experiment 1 ([2]; 25 mg/kg): 0%

Compound: O=C(CSc1ccc2cc(O)c(O)cc2c1)Nc1ccccc1-c1nnn[nH]1 [Exemplary compound V-(5), N-[2-(5-tetrazolyl)phenyl](6,7-dihydroxy-2-naphthylthio)acetamide]
inhibition at 10 µM [1, 5]: 28.1% | Suppressive ratio (%) Experiment 2 ([2]; 25 mg/kg): 16.5%

5-HETE (Inhibitory ratio %) (Lipoxygenase): 66% | LTB₄ (Inhibitory ratio %) (Lipoxygenase): 76% | Amount of LTB₄ produced (Lipoxygenase): 30 ng/ml/plasma | Amount of 5-HETE produced (Lipoxygenase): 45 ng/ml/plasma
Compound: Oc1cc2ccc(SCc3ccccc3)cc2cc1O [II-(1)]

Compound: COC(=O)CSc1ccc2cc(OC(C)=O)c(OC(C)=O)cc2c1 [Exemplary compound VI-(2), Methyl (6,7-diacetoxy-2-naphthyithio)acetate]
Inhibitory ratio (%) histamine release [1, 6]: 2.6%

Compound: O=C(CSc1ccc2cc(O)c(O)cc2c1)Nc1nnn[nH]1 [Exemplary compound V-(2), N-5-tetrazolyl(6,7-dihydroxy-2-naphthylthio)-acetamide]
inhibition at 10 µM [1, 5]: 2.2% | Suppressive ratio (IgE antibody production) ([3]; 10⁻⁷ M): 11% | Suppressive ratio (%) Experiment 1 ([2]; 25 mg/kg): -0.3%

Compound: COC(=O)CSc1ccc2cc(OC(=O)OC(C)C)c(OC(=O)OC(C)C)cc2c1 [Exemplary compound VI-(4), Methyl (6,7-diisopropoxycarbonyloxy-2-naphthylthio)acetate]
inhibition at 10 µM [1, 6]: 17.8%

Compound: O=C(CSc1ccc2cc(O)c(O)cc2c1)NCCCCN1CCN(C(c2ccc(F)cc2)c2ccc(F)cc2)CC1 [Exemplary compound V-(6), 1-[4-[(6,7-dihydroxy-2-naphthylthio)acetylamino]-butyl]-4-[bis(4-fluorophenyl)methyl]piperazine]
inhibition at 10 µM [1, 5]: 5.9% | Suppressive ratio (%) Experiment 2 ([2]; 25 mg/kg): 15.9%

Compound: O=C(O)CSc1ccc2cc(O)c(O)cc2c1 [Exemplary compound IV-(2), (6,7-Dihydroxy-2-naphthylthio)acetic acid]
suppressive action against non-allergy histamine release (in words) [1]: weak suppressive actions | suppressive action against allergy histamine release (in words) [4]: suppressive actions

5-HETE (Inhibitory ratio %) (Lipoxygenase): 69% | LTB₄ (Inhibitory ratio %) (Lipoxygenase): 72% | Amount of LTB₄ produced (Lipoxygenase): 35 ng/ml/plasma | Amount of 5-HETE produced (Lipoxygenase): 40 ng/ml/plasma
Compound: COC(=O)C(C)Sc1ccc2cc(O)c(O)cc2c1 (stereo not shown) [Exemplary compound VII-(1), Methyl 2-(6,7-dihydroxy-2-naphthylthio)-propionate]

Compound: COC(=O)CSc1ccc2cc(OC(=O)OC)c(OC(=O)OC)cc2c1 [Exemplary compound VI-(3), Methyl (6,7-dimethoxycarbonyloxy-2-naphthylthio)acetate]
inhibition at 10 µM [1, 6]: 7.5%

Compound: O=C(CSc1ccc2cc(O)c(O)cc2c1)Nc1ccccc1C(=O)O [Exemplary compound V-(3), N-(2-carboxyphenyl)(6,7-dihydroxy-2-naphthylthio)acetamide]
inhibition at 10 µM [1, 5]: 1.3% | Suppressive ratio (%) Experiment 1 ([2]; 25 mg/kg): -18.0%
